Laboratory results: PubChem BioAssay (NCI)
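Step 1: Grow cells in 96-well plates. Step 2: Expose to compound for 48 hours at 5 concentrations. Step 3: Interpolate endpoints linearly; if unreached, use highest concentration. TGI: concentration producing complete growth inhibition.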

What was measured:
Assay in all cases: NCI anticancer screen, dose series, 48 h
[1] = tested on: BT-549 breast
[2] = tested on: UACC-257 melanoma
[3] = tested on: SNB-19 CNS
[4] = tested on: HT29 colon
[5] = tested on: HCT-116 colon
[6] = tested on: HS 578T breast
[7] = tested on: OVCAR-8 ovarian
[8] = tested on: NCI-H226 lung
[9] = tested on: NCI/ADR-RES ovarian
[10] = tested on: 786-0 renal
[11] = tested on: EKVX NSCLC
[12] = tested on: MCF7 breast
[13] = tested on: MALME-3M melanoma
[14] = tested on: RPMI-8226 leukemia
[15] = tested on: LOX IMVI melanoma
[16] = tested on: U251 CNS
[17] = tested on: HOP-92 NSCLC
[18] = tested on: SK-MEL-2 melanoma
[19] = tested on: COLO 205 colon
[20] = tested on: SF-268 CNS
[21] = tested on: RXF 393 renal
[22] = tested on: SN12C renal
[23] = tested on: OVCAR-3 ovarian
[24] = tested on: SW-620 colon
[25] = tested on: MDA-MB-231 breast
[26] = tested on: SNB-75 CNS
[27] = tested on: CAKI-1 renal
[28] = tested on: KM12 colon
[29] = tested on: HCT-15 colon
[30] = tested on: SF-539 CNS
[31] = tested on: OVCAR-4 ovarian
[32] = tested on: M14 melanoma
[33] = tested on: SF-295 CNS
[34] = tested on: TK-10 renal
[35] = tested on: CCRF-CEM leukemia
[36] = tested on: A549 NSCLC
[37] = tested on: K-562 leukemia
[38] = tested on: UO-31 renal
[39] = tested on: NCI-H23 lung
[40] = tested on: HOP-62 NSCLC
[41] = tested on: SK-OV-3 ovarian
[42] = tested on: HL-60(TB) leukemia
[43] = tested on: IGROV1 ovarian
[44] = tested on: NCI-H522 lung
[45] = tested on: DU-145 prostate
[46] = tested on: MDA-MB-435
[47] = tested on: MOLT-4 leukemia
[48] = tested on: MDA-N
[49] = tested on: OVCAR-5 ovarian
[50] = tested on: SK-MEL-28 melanoma
[51] = tested on: SK-MEL-5 melanoma
[52] = tested on: UACC-62 melanoma
[53] = tested on: T-47D breast
[54] = tested on: PC-3 prostate
[55] = tested on: ACHN renal
[56] = tested on: A498 renal
[57] = tested on: HCC-2998 colon
[58] = tested on: SR leukemia
[59] = tested on: NCI-H460 lung

NC(=O)Nc1c(Cl)cc(S(N)(=O)=O)cc1Cl
TGI [1]: > 100 µM
TGI [2]: > 100 µM
TGI [3]: > 100 µM
TGI [4]: > 100 µM
TGI [5]: > 100 µM
TGI [6]: > 100 µM
TGI [7]: > 100 µM
TGI [8]: > 100 µM
TGI [9]: > 100 µM
TGI [10]: > 100 µM
TGI [11]: > 100 µM
TGI [12]: > 100 µM
TGI [13]: > 100 µM
TGI [14]: > 100 µM
TGI [15]: > 100 µM
TGI [16]: > 100 µM
TGI [17]: > 100 µM
TGI [18]: > 100 µM
TGI [19]: > 100 µM
TGI [20]: > 100 µM
TGI [21]: > 100 µM
TGI [22]: > 100 µM
TGI [23]: > 100 µM
TGI [24]: > 100 µM
TGI [25]: > 100 µM
TGI [26]: > 100 µM
TGI [27]: > 100 µM
TGI [28]: > 100 µM
TGI [29]: > 100 µM
TGI [30]: > 100 µM
TGI [31]: > 100 µM
TGI [32]: > 100 µM
TGI [33]: > 100 µM
TGI [34]: > 100 µM
TGI [35]: > 100 µM
TGI [36]: > 100 µM
TGI [37]: > 100 µM
TGI [38]: > 100 µM
TGI [39]: > 100 µM
TGI [40]: > 100 µM
TGI [41]: > 100 µM
TGI [42]: > 100 µM
TGI [43]: > 100 µM
TGI [44]: > 100 µM
TGI [45]: > 100 µM
TGI [46]: > 100 µM
TGI [47]: > 100 µM
TGI [48]: > 100 µM
TGI [49]: > 100 µM
TGI [50]: > 100 µM
TGI [51]: > 100 µM
TGI [52]: > 100 µM

C#CCNC(CSSCC(N)C(=O)O)C(=O)O (centres undefined)
TGI [2]: > 100 µM
TGI [3]: > 100 µM
TGI [4]: > 100 µM
TGI [5]: > 100 µM
TGI [6]: > 100 µM
TGI [7]: > 100 µM
TGI [8]: > 100 µM
TGI [9]: > 100 µM
TGI [10]: > 100 µM
TGI [11]: > 100 µM
TGI [53]: > 100 µM
TGI [12]: > 100 µM
TGI [13]: > 100 µM
TGI [14]: > 100 µM
TGI [16]: > 100 µM
TGI [17]: > 100 µM
TGI [54]: > 100 µM
TGI [18]: > 100 µM
TGI [19]: > 100 µM
TGI [20]: > 100 µM
TGI [21]: > 100 µM
TGI [23]: > 100 µM
TGI [24]: > 100 µM
TGI [25]: > 100 µM
TGI [26]: > 100 µM
TGI [27]: > 100 µM
TGI [55]: > 100 µM
TGI [28]: > 100 µM
TGI [56]: > 100 µM
TGI [29]: > 100 µM
TGI [30]: > 100 µM
TGI [31]: > 100 µM
TGI [32]: > 100 µM
TGI [33]: > 100 µM
TGI [57]: > 100 µM
TGI [34]: > 100 µM
TGI [35]: > 100 µM
TGI [36]: > 100 µM
TGI [38]: > 100 µM
TGI [39]: > 100 µM
TGI [40]: > 100 µM
TGI [41]: > 100 µM
TGI [43]: > 100 µM
TGI [44]: > 100 µM
TGI [45]: > 100 µM
TGI [46]: > 100 µM
TGI [47]: > 100 µM
TGI [48]: > 100 µM
TGI [49]: > 100 µM
TGI [50]: > 100 µM
TGI [51]: > 100 µM
TGI [52]: > 100 µM

CC12CCC(CC(=O)/C1=C(/Br)I)C2(C)C (centres undefined)
TGI [2]: 29.8 µM
TGI [3]: 30.7 µM
TGI [4]: 25 µM
TGI [5]: 24.9 µM
TGI [6]: 44 µM
TGI [7]: 34.3 µM
TGI [8]: 29.9 µM
TGI [9]: 29.8 µM
TGI [10]: 30.2 µM
TGI [11]: 36.6 µM
TGI [53]: 46.4 µM
TGI [13]: 25.8 µM
TGI [14]: 26.4 µM
TGI [17]: 31.6 µM
TGI [54]: 23.6 µM
TGI [18]: 30.3 µM
TGI [19]: 31.9 µM
TGI [20]: 28.9 µM
TGI [21]: 20.6 µM
TGI [22]: 29.6 µM
TGI [23]: 26.9 µM
TGI [24]: 34.4 µM
TGI [25]: 17.6 µM
TGI [26]: 31 µM
TGI [27]: 31.2 µM
TGI [55]: 32.1 µM
TGI [28]: 32 µM
TGI [56]: 33.7 µM
TGI [29]: 31.2 µM
TGI [30]: 29.2 µM
TGI [31]: 29.1 µM
TGI [32]: 28.3 µM
TGI [33]: 3.03 µM
TGI [34]: 32.9 µM
TGI [35]: 30.5 µM
TGI [58]: 39 µM
TGI [36]: 29.3 µM
TGI [37]: 26.4 µM
TGI [38]: 32.1 µM
TGI [39]: 27.9 µM
TGI [40]: 32.1 µM
TGI [41]: 45.4 µM
TGI [42]: 12 µM
TGI [59]: > 100 µM
TGI [43]: 31.4 µM
TGI [45]: 34.8 µM
TGI [46]: 28.6 µM
TGI [47]: 23.9 µM
TGI [48]: 26.7 µM
TGI [49]: 8.76 µM
TGI [50]: 30.4 µM
TGI [51]: 23.6 µM
TGI [52]: 30.4 µM

CCn1nc(C)c2c1C(=O)NCC(=O)N2
TGI [1]: > 100 µM
TGI [2]: > 100 µM
TGI [3]: > 100 µM
TGI [4]: > 100 µM
TGI [5]: > 100 µM
TGI [6]: > 100 µM
TGI [7]: > 100 µM
TGI [11]: > 100 µM
TGI [16]: > 100 µM
TGI [17]: > 100 µM
TGI [54]: > 100 µM
TGI [19]: > 100 µM
TGI [20]: > 100 µM
TGI [21]: > 100 µM
TGI [22]: > 100 µM
TGI [23]: > 100 µM
TGI [24]: > 100 µM
TGI [26]: > 100 µM
TGI [27]: > 100 µM
TGI [55]: > 100 µM
TGI [28]: > 100 µM
TGI [56]: > 100 µM
TGI [29]: > 100 µM
TGI [30]: > 100 µM
TGI [31]: > 100 µM
TGI [32]: > 100 µM
TGI [33]: > 100 µM
TGI [34]: > 100 µM
TGI [36]: > 100 µM
TGI [38]: > 100 µM
TGI [39]: > 100 µM
TGI [41]: > 100 µM
TGI [59]: > 100 µM
TGI [43]: > 100 µM
TGI [44]: > 100 µM
TGI [45]: > 100 µM
TGI [46]: > 100 µM
TGI [48]: > 100 µM
TGI [49]: > 100 µM
TGI [50]: > 100 µM
TGI [51]: > 100 µM
TGI [52]: > 100 µM
